Data reported in patent publication US8822674B2, “Crystal form of 4-isopropylphenyl glucitol compound and process for production thereof” (Taisho Pharmaceutical Co., Ltd, priority 2010, dated 2014).

What was measured:
[1] = Renal concentrations until one week after single oral administration; type: in vivo; conditions: Sprague-Dawley (SD/IGS), rat, 1 mg/kg po, male Sprague-Dawley rats, kidney
Protocol: SD/IGS rats at 7 weeks of age (male, non-fasting, Charles River Laboratories Japan Inc.) were orally administered with compound 4, 10 or 33 (1 mg/kg each) or compound 11 (0.3 mg/kg) prepared in a 0.5% aqueous CMC solution. At 24, 72 and 168 hours after drug administration, the rats were exsanguinated via the postcaval vein under ether anesthesia, and their kidneys were excised after they were confirmed to be euthanized. After the tissue surface was washed with physiological saline, each tissue was measured for its weight and homogenized in 4 volumes of purified water under ice cooling. To each homogenate, an acetonitrile/methanol solution containing an internal standard substance was added to remove proteins, and the supernatant was then subjected to LC-MS/MS (Applied Biosystems API3000). Drug-derived ions generated by electrospray ionization in positive ion mode were detected by selective reaction monitoring. The peak area of the resulting extracted ion chromatogram was analyzed by the internal standard method to calculate the drug concentration in the homogenate.
As the internal standard material for Compounds 10 and 33, (1S)-1,5-anhydro-1-[5-(4-ethoxybenzyl)-2-methoxy-4-methylphenyl]-1-thio-D-glucitol,ethyl-D5 was used. As the internal standard materials for Compounds 4 and 11, Compound II and deuterium-labeled Compound II (trishydroxymethyl-D6; —C(CD2OH)3), respectively, were used.

human SGLT1 = target: T1, human SGLT1 (Homo sapiens, UniProt P13866); assay: Inhibition test for sodium-dependent sugar uptake in CHO-K1 cells stably expressing human SGLT1; type: cell-based; conditions: summary of Table 1
T1 construct: expressed in transfected cells; host or cells: CHO-K1
T1 sequence (P13866 1-664): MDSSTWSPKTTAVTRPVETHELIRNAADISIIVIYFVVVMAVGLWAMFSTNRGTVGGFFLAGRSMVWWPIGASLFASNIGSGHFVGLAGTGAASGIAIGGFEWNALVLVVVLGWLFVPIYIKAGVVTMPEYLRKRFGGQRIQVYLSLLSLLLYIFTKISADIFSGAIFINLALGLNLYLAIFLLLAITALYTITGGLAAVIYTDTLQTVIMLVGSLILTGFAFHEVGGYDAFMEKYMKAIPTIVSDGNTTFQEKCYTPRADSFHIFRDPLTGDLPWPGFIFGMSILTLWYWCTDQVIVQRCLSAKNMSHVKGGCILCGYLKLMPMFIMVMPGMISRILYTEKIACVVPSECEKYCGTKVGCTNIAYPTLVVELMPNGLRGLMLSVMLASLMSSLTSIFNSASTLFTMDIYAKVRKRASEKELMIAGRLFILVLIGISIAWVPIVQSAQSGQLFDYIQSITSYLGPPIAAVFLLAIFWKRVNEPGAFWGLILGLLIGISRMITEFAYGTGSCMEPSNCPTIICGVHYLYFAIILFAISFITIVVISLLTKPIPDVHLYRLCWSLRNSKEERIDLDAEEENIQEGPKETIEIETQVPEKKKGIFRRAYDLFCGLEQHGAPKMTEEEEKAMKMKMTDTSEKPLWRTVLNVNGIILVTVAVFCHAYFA
Protocol: (§1) A plasmid vector expressing human SGLT1 protein was transfected into CHO-K1 cells using lipofectamine 2000 (Invitrogen). The cells were cultured in the presence of 500 μg/mL geneticin to select resistant strains, followed by screening in the system shown below using sugar uptake capacity as an indicator to obtain SGLT1-expressing cells.
(§2) The stably expressing cells prepared above were used in the following test.
Pretreatment buffer (140 mM choline chloride, 2 mM KCl, 1 mM CaCl2, 1 mM MgCl2, 10 mM HEPES/5 mM Tris, pH 7.4) was added in a volume of 200 μL to the cells stably expressing SGLT1 or 2 mL for Method A and 200 μL for Method B to the cells stably expressing SGLT2, followed by incubation for 20 minutes. The pretreatment buffer was removed and replaced by uptake buffer containing a test compound (1 mM methyl α-D-glucopyranoside (containing [^14C]methyl α-D-glucopyranoside), 140 mM NaCl, 2 mM KCl, 1 mM CaCl2, 1 mM MgCl2, 10 mM HEPES/5 mM Tris, pH 7.4) in a volume of 75 μL for SGLT1 and SGLT2 in Method B or 200 μL for SGLT2 in Method A. Uptake reaction was performed at 37° C. for 30 minutes (SGLT1) or 60 minutes (SGLT2). […] A liquid scintillator (Perkin Elmer) was added and mixed well with each sample, followed by measurement of radioactivity using a β-ray analyzer. […]

[2] = target: T2, human SGLT2 protein modified to have LeuGluSerArgGlyProVal added to the carboxy-terminal final residue (Homo sapiens, UniProt P31639); assay: Inhibition test for sodium-dependent sugar uptake in CHO-K1 cells stably expressing human SGLT2, Method A; type: cell-based; conditions: summary of Table 1; method not specified
T2 construct: expressed in transfected cells; host or cells: CHO-K1
T2 sequence (P31639 with tags, fused parts or gaps): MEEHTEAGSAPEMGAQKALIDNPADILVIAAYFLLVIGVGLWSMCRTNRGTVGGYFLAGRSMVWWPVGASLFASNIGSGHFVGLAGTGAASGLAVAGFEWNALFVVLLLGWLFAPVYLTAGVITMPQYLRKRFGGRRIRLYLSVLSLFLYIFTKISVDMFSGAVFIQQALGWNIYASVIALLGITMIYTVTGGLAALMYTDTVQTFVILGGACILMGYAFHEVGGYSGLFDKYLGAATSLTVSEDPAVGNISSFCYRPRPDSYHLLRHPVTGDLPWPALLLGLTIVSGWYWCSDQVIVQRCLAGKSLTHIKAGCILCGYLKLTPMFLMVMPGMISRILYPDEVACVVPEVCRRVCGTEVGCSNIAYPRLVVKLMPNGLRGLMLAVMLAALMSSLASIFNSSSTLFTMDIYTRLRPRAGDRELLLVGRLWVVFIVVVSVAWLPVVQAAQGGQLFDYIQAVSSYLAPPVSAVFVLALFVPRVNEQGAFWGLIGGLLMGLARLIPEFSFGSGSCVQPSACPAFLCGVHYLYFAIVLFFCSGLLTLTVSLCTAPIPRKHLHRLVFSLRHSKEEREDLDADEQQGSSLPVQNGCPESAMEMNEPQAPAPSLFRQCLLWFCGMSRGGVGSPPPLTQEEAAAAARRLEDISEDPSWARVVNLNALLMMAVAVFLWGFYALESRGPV
Protocol: as §1, with “Method A (described in WO2007/136116): A” for “A”, “SGLT2” for “SGLT1”, “protein modified to have LeuGluSerArgGlyProVal added to the carboxy-terminal final residue” for “protein”, “hygromycin B” for “geneticin”, “SGLT2-expressing” for “SGLT1-expressing”
as §2
Pretreatment buffer (140 mM choline chloride, 2 mM KCl, 1 mM CaCl2, 1 mM MgCl2, 10 mM HEPES/5 mM Tris, pH 7.4) was added in a volume of 200 μL to the cells stably expressing SGLT1 or 2 mL for Method A and 200 μL for Method B to the cells stably expressing SGLT2, followed by incubation for 20 minutes. […] A liquid scintillator (Perkin Elmer) was added and mixed well with each sample, followed by measurement of radioactivity using a β-ray analyzer. […]

[3] = tested on: streptozotocin (STZ)-induced diabetic rats; assay: Oral glucose tolerance test in streptozotocin diabetic model rats; type: in vivo, rat
Protocol: SD/IGS rats at 7 weeks of age (male, Charles River Laboratories Japan Inc.) were fasted for about 16 hours and then injected with 50 mg/kg streptozotocin (STZ) via the caudal vein under ether anesthesia to prepare diabetic model rats. Similarly, another group of SD/IGS rats at 7 weeks of age was injected with 1.25 mmol/L citric acid in physiological saline (1 mL/kg) via the tail vein under ether anesthesia to prepare normal control rats. At one week after injection of STZ or 1.25 mmol/L citric acid in physiological saline, the rats (8 weeks old) were provided for an oral glucose tolerance test. […]
Blood was collected from the caudal veins of the rats under ether anesthesia with the use of a heparin-coated blood collecting tube and centrifuged, whereafter blood plasma was separated. Plasma glucose concentrations were quantified by measurement with a Glucose CII-Test Wako (Wako Pure Chemical Industries, Ltd., Japan). To determine the intensity of hypoglycemic effect, the blood glucose level before drug administration was subtracted from each blood glucose level measured until one hour after oral administration in each drug group, and the resulting values were analyzed by the trapezoidal method to calculate an increment in the area under the curve for glucose (ΔAUC), which was expressed as a decrease relative to ΔAUC of the control group.

[4] = Renal concentration after repeated oral administration for 3 days; type: in vivo, rat; conditions: 3 mg/kg for 3 consecutive days, subsequent day 2
Protocol: At 48 hours after the final drug administration, the rats were exsanguinated via the postcaval vein under isoflurane anesthesia, and their kidneys were excised after they were confirmed to be euthanized. After the tissue surface was washed with physiological saline, each tissue was measured for its weight and homogenized in 4 volumes of purified water under ice cooling. The drug concentration in each homogenate was determined in the same manner as shown in Test Example 3(1) by LC-MS/MS using compound II as an internal standard substance.

Structure (SMILES): Cc1cc(O)c([C@@H]2O[C@H](CO)[C@@H](O)[C@H](O)[C@H]2O)cc1Cc1ccc(CCCC(=O)NC(C)(C)C(N)=O)cc1 [compound 4]
- concentration at 1 day ([1]; 1 day, read-out: Concentration of compounds in kidney after single oral administration, After 1 day): 68.4 ± 7.49 ng/g
- concentration at 3 days ([1]; 3 days, read-out: Concentration of compounds in kidney after single oral administration, After 3 days): 85.5 ± 23.1 ng/g
- concentration at 7 days ([1]; 7 days, read-out: Concentration of compounds in kidney after single oral administration, After 7 days): 76.3 ± 15.5 ng/g

Structure (SMILES): COc1cc(C(C)C)c(Cc2ccc(/C=C/C(C)(C)C(=O)NC(C)(C)C(=O)NCCN(C)C)cc2)cc1[C@@H]1O[C@H](CO)[C@@H](O)[C@H](O)[C@H]1O [compound (A), (1S)-1,5-anhydro-1-[5-(4-{(1E)-4-[(1-{[2-(dimethylamino)ethyl]amino}-2-methyl-1-oxopropan-2-yl)amino]-3,3-dimethyl-4-oxobut-1-en-1-yl}benzyl)-2-methoxy-4-(propan-2-yl)phenyl]-D-glucitol]
- SGLT1 inhibiting activity (in words) (human SGLT1): strong
- SGLT2 inhibiting activity (in words) [2]: some, although weak
- STZ rats OGTT % inhibition ΔAUC0−1 h (mg/dl) @1 mg/kg/po ([3]; STZ-induced diabetic rats, oral dose 1 mg/kg, glucose 2 g/kg, versus vehicle control): 65%
- hypoglycemic action in the glucose tolerance test (in words) ([3]; oral administration of 1 mg/kg): potent
- remaining in the kidney after repeated administration (in words) [4]: did not remain in the kidney
